The results in this text go back to PubChem BioAssay (NCI).

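Step 1: Grow cells in 96-well plates. Step 2: Expose to compound for 48 hours at 5 concentrations. Step 3: Interpolate endpoints linearly; if unreached, use highest concentration. GI50 is the concentration that inhibits growth by half. Definition used: TGI = concentration required for complete inhibition of growth.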 A value given as a limit tells only on which side of the number the result lay.

Test systems include SF-295 CNS; HT29 colon; COLO 205 colon; NCI-H460 lung; EKVX NSCLC; SR leukemia; LOX IMVI melanoma; K-562 leukemia; UACC-257 melanoma; A549 NSCLC; M14 melanoma; SK-MEL-28 melanoma; SK-MEL-5 melanoma; IGROV1 ovarian; OVCAR-4 ovarian; KM12 colon; UO-31 renal; A498 renal.
Assay in all cases: inhibition of tumour cell growth, NCI panel, 48 h

With `COCCOC(=O)NCn1cc(-c2ccccc2)nn1`, the TGI in the test with SF-295 CNS, in the test with HT29 colon, with COLO 205 colon, with NCI-H460 lung, in the test on EKVX NSCLC and in the test on SR leukemia was above 100 µM throughout. The TGI in the test on LOX IMVI melanoma, with K-562 leukemia, in the test on UACC-257 melanoma, in the test on A549 NSCLC, with M14 melanoma and with SK-MEL-28 melanoma was above 100 µM throughout. In addition, the TGI with SK-MEL-5 melanoma, with IGROV1 ovarian, in the test on OVCAR-4 ovarian and with KM12 colon was above 100 µM each time.
Consider `O=C(c1ccco1)N(C(=S)N1CCN(c2ccccc2)CC1)C1CCCCC1`, for which the TGI in the test with SF-295 CNS, in the test with HT29 colon, in the test on COLO 205 colon, in the test with NCI-H460 lung, with SR leukemia and in the test with LOX IMVI melanoma was above 100 µM in each case. Moreover, the TGI in the test with UO-31 renal, in the test on K-562 leukemia, in the test with UACC-257 melanoma, in the test on A549 NSCLC, in the test with M14 melanoma and in the test with SK-MEL-5 melanoma was above 100 µM in each case. Moreover, the TGI with IGROV1 ovarian, in the test on OVCAR-4 ovarian and with KM12 colon was above 100 µM throughout.
`O=C(Nn1c(-c2cccs2)nc2ccc(I)cc2c1=O)c1ccccc1`: the TGI in the test on SF-295 CNS is 91.7 µM; in the test on HT29 colon it was 90.6 µM; in the test with COLO 205 colon, above 100 µM; with NCI-H460 lung, above 100 µM; with EKVX NSCLC it was 70.5 µM; in the test on SR leukemia it was 61.4 µM. For the same compound, the TGI is 46.9 µM in the test with LOX IMVI melanoma; 93.3 µM in the test on UO-31 renal; above 100 µM in the test on K-562 leukemia; 31.1 µM in the test on UACC-257 melanoma; 45.1 µM in the test on A549 NSCLC; above 100 µM in the test with M14 melanoma. The TGI is 53 µM with SK-MEL-28 melanoma; 76.8 µM in the test with SK-MEL-5 melanoma; 82.6 µM in the test on IGROV1 ovarian; 80.6 µM with OVCAR-4 ovarian; 81.2 µM with KM12 colon. Besides, the GI50 in the test with K-562 leukemia was 43.8 µM.
As for `C=C1[C@H]2O[C@H]2[C@@H](OC(C)=O)[C@@]2(C)[C@@H](OC(C)=O)C[C@@H](OC(=O)CCC)[C@@](C)(O)[C@@H]2[C@@H](OC(C)=O)[C@]2(O)[C@@H](C)C(=O)O[C@H]2[C@H]1Cl`, the TGI in the test on SF-295 CNS, in the test on HT29 colon, in the test with A498 renal, in the test on COLO 205 colon, in the test with NCI-H460 lung and in the test on EKVX NSCLC was above 100 µM each time. The TGI in the test with UO-31 renal, in the test on K-562 leukemia, with UACC-257 melanoma, in the test with A549 NSCLC, in the test with M14 melanoma and with SK-MEL-28 melanoma was above 100 µM in each case. In addition, the TGI in the test with SK-MEL-5 melanoma, in the test with OVCAR-4 ovarian and with KM12 colon was above 100 µM each time.
Regarding `CC(C)(C)C1CCC2c3c([nH]c4ncccc34)C3C(=O)N(c4ccccc4)C(=O)C3C2C1` (centres undefined), the TGI with SF-295 CNS, in the test on HT29 colon, in the test on COLO 205 colon, in the test with NCI-H460 lung, with EKVX NSCLC and in the test on SR leukemia was above 100 µM each time. Also, the TGI in the test with LOX IMVI melanoma, in the test with UO-31 renal, in the test on K-562 leukemia, in the test on UACC-257 melanoma, in the test with A549 NSCLC and in the test with M14 melanoma was above 100 µM each time. Moreover, the TGI with SK-MEL-28 melanoma, in the test on SK-MEL-5 melanoma, with IGROV1 ovarian, in the test with OVCAR-4 ovarian and with KM12 colon was above 100 µM in each case.
As for `Cc1ccc(/C=C/C(=N/NC(=O)N/N=C(/C=C/c2ccc(C)cc2)C(C)C)C(C)C)cc1`, the TGI in the test on SF-295 CNS, in the test on HT29 colon, with COLO 205 colon, in the test on NCI-H460 lung, in the test with EKVX NSCLC and with SR leukemia was above 10 µM throughout. Also, the TGI in the test on UO-31 renal was above 10 µM; with K-562 leukemia, above 10 µM; with UACC-257 melanoma, above 10 µM; with A549 NSCLC, above 10 µM; with M14 melanoma it was above 10 µM; in the test with OVCAR-4 ovarian, 2.88 µM. In the test on KM12 colon, this compound returned a TGI above 10 µM.
Turning to `O=C1C2=Cc3ccccc3OC2(O)Oc2ccccc21` (centres undefined), the TGI with SF-295 CNS, in the test with HT29 colon, with A498 renal, with COLO 205 colon, in the test on EKVX NSCLC and in the test with SR leukemia was above 100 µM in each case. For the same compound, the TGI with LOX IMVI melanoma, in the test with K-562 leukemia, in the test on UACC-257 melanoma, in the test on A549 NSCLC, in the test with M14 melanoma and in the test on SK-MEL-28 melanoma was above 100 µM in each case. Besides, the TGI with SK-MEL-5 melanoma, with IGROV1 ovarian, in the test with OVCAR-4 ovarian and in the test with KM12 colon was above 100 µM each time.
Take `CC(=O)Nc1ccc2c3c(cc(O)c2c1)N(C(=O)CCCCC(=O)N1CC(CCl)c2c1cc(O)c1cc(NC(C)=O)ccc21)CC3CCl` (centres undefined): the TGI was above 24.1 µM in the test on SF-295 CNS; above 30.4 µM in the test on HT29 colon; 0.39 µM in the test with A498 renal; 0.376 µM in the test on COLO 205 colon; 12.8 µM in the test with EKVX NSCLC; 0.0278 µM in the test with SR leukemia. Further, the TGI in the test with LOX IMVI melanoma was above 100 µM; with UO-31 renal, above 44.6 µM; with K-562 leukemia, above 100 µM; in the test on M14 melanoma, 1.16 µM; in the test with SK-MEL-28 melanoma, above 33.3 µM; in the test with SK-MEL-5 melanoma it was 0.391 µM. The results for the TGI with OVCAR-4 ovarian and in the test with KM12 colon were above 27.7 µM and 14 µM, respectively.
Turning to `CCCCN(CCCC)CCC(O)c1cc(-c2ccc(C(F)(F)F)cc2)nc(-c2ccc(C(F)(F)F)cc2)c1` (centres undefined), the TGI in the test on SF-295 CNS, in the test on HT29 colon, in the test with A498 renal, in the test on COLO 205 colon, with NCI-H460 lung and in the test on EKVX NSCLC was above 100 µM each time. The TGI with SR leukemia, in the test with LOX IMVI melanoma, in the test on UO-31 renal, in the test with K-562 leukemia, in the test on UACC-257 melanoma and in the test with M14 melanoma was above 100 µM each time. Moreover, the TGI with SK-MEL-28 melanoma, in the test with IGROV1 ovarian and with OVCAR-4 ovarian was above 100 µM in each case.
Turning to `CCOC(=O)C(C)Sc1nnc(COc2ccc(Cl)cc2)n1-c1ccccc1` (centres undefined), the TGI was determined as 85.4 µM in the test with SF-295 CNS; 31.9 µM with HT29 colon; 33.2 µM in the test with COLO 205 colon; 31.6 µM in the test with NCI-H460 lung; 83.5 µM with EKVX NSCLC; 27.4 µM in the test with LOX IMVI melanoma. Further, the TGI in the test with UO-31 renal was 28 µM; in the test on K-562 leukemia, 49.9 µM; in the test with UACC-257 melanoma it was 47.3 µM; with A549 NSCLC, above 100 µM; in the test on M14 melanoma, 30.9 µM; in the test on SK-MEL-28 melanoma, 49.2 µM. Moreover, the TGI in the test with SK-MEL-5 melanoma was determined as 35.8 µM; with IGROV1 ovarian it was 50.3 µM; with OVCAR-4 ovarian, 42.6 µM; in the test with KM12 colon, 41.9 µM.
On to `O=C1c2c(O)cc(O)cc2C(C2OC(CO)C(O)C(O)C2O)c2cc(CO)cc(O)c21` (centres undefined), for which the TGI in the test on SF-295 CNS, in the test on HT29 colon, in the test with A498 renal, with COLO 205 colon, with NCI-H460 lung and in the test with EKVX NSCLC was above 100 µM each time. Also, the TGI in the test with SR leukemia, in the test on UO-31 renal, in the test with K-562 leukemia, in the test on UACC-257 melanoma, in the test with A549 NSCLC and with M14 melanoma was above 100 µM each time. Also, the TGI in the test with SK-MEL-28 melanoma, in the test with SK-MEL-5 melanoma, in the test on IGROV1 ovarian and in the test with OVCAR-4 ovarian was above 100 µM throughout.
With `COc1ccc2c(c1)CC1COc3cc(OC)ccc3C1O2` (centres undefined), the TGI in the test with SF-295 CNS, in the test on HT29 colon, in the test on A498 renal, with COLO 205 colon, with EKVX NSCLC and in the test on SR leukemia was above 100 µM throughout. For the same compound, the TGI in the test with LOX IMVI melanoma, in the test on UO-31 renal, with UACC-257 melanoma, with A549 NSCLC, with M14 melanoma and in the test on SK-MEL-5 melanoma was above 100 µM in each case. Besides, the TGI in the test with IGROV1 ovarian and in the test with KM12 colon was above 100 µM throughout.
On to `O=C(c1cccc2ccccc12)C1S(=O)(=O)OCCOS1(=O)=O`, for which the TGI was 0.0412 µM in the test on SF-295 CNS; above 100 µM in the test with HT29 colon; above 100 µM in the test on COLO 205 colon; above 100 µM with NCI-H460 lung; above 100 µM with EKVX NSCLC; above 100 µM in the test with SR leukemia. The TGI with UO-31 renal, with K-562 leukemia, in the test on A549 NSCLC, in the test with M14 melanoma, in the test with SK-MEL-28 melanoma and in the test with SK-MEL-5 melanoma was above 100 µM throughout. Besides, the TGI in the test with OVCAR-4 ovarian and in the test on KM12 colon was above 100 µM throughout.
